pEC50: −log10 of the molar value.
Tests used:
[1] = tested on: Human embryonic kidney (HEK293) cells; mouse neuroblastoma (N2a) cells; assay: Cell rescue assay: protection against thapsigargin (TG)-induced cell-death (ALAMARBLUE); format: cell-based; conditions: compound at 20 μM, 2 hrs before thapsigargin (15 μM for HEK293 cells, 1 μM for N2a cells), 24 hrs; viability as % RFU compared to control; cell line not given; read-out: Cell Survival %
Protocol: Protection against Thapsigargin (TG)-induced Cell-death. Human embryonic kidney (HEK293) cells were grown in Dulbecco's Modified Eagle's Medium (DMEM) with 10% FBS and 1% antibiotic antimycotic solution (ABAM). Mouse neuroblastoma (N2a) cells were grown in 1:1 DMEM:OPTI-MEM® with 5% FBS and 1% ABAM. All cells were grown in 10% CO2 in a humidified environment of the incubator. Cells grown in 96-well plates were exposed to a test compound (20 μM) for 2 hrs before addition of thapsigargin (15 μM for HEK293 cells and 1 μM for N2a cells) to induce ER stress. After incubation in cell-culture incubator for 24 hrs, ALAMARBLUE® regent (10% v/v) was added to the wells. Fluorescence reading was taken 2 hrs after the addition of the ALAMARBLUE® regent. Cell-viability was calculated as a percentage of relative fluorescence unit (RFU) compared to control. […] The biological results are summarized in Table 2, where each compound was tested at 20 μM and where A represents a viability greater than or equal to 50%, B represents a viability greather than 20% and less than 50%, and C represents a value from 10% to 20%.

[2] = tested on: Human SH-SY5Y cells; assay: Cell rescue assay: protection against ß-amyloid-induced cell toxicity; format: cell-based; conditions: 96 h, 7.5 uM compound, AB1-42 at 10 uM, 4 days, % cell rescue, read-out: Cell Survival %
Protocol: Protection against ß-amyloid-induced cell toxicity. Chonpathompikunlert et al. Eu. J. Pharmacol. 2011, 650, 544-549. Human SH-SY5Y cells are suspended in media containing 2% FBS and 2× Gentamicin. Transfer 100 ul/well culture to 96-well plate (20,000 cells/well; passage #5) and incubate overnight. Prepare compound samples at 30 uM. Add 50 ul of the samples to the cells [[…]] and incubate 3 hours. Make stock of 40 uM AB1-42 peptide in assay media. Transfer 50 ul/well to cells/compounds in assay plate. The final assay volume is 200 ul/well, containing 2% FBS, 2× Gentamicin, 7.5 uM compound and AB1-42 at 10 uM. Incubate for 4 days then add 20 ul of Promega Substrate Cell Titer 96 Aqueous One Solution Reagent to each well. Incubate 37° C. and read OD at 490 nm. The results are summarized in Table 3, where A represents a value equal to or greater than 50% cell rescue, B represents a value greater than 20% and less than 50% cell rescue, and C represents a value greater than 10% and less than or equal to 20% cell rescue.

[3] = tested on: Ob/ob mice; assay: Effect of a SERCA agonist on the level of blood glucose; format: in vivo; conditions: Mus musculus, ip, 96 h, 50 mg/kg i.p. once a day for 5 days, fasting glucose at baseline and 4 days after administration, read-out: Glucose level reduction
Protocol: Ob/ob mice (10 weeks old, n=7) were intraperitoneally (i.p.) injected with 100 μL of a solution containing 0 (vehicle) or 50 mg/kg of a test compound once a day for a total of 5 days. Fasting glucose was measured at baseline and 4 days after the administration of the test compound. Glucose levels were measured in blood samples drawn from the tail vein using a handheld glucose sensor. Compound effects on blood glucose are shown in Table 5 where A represents a 10-20% reduction in blood glucose, B represents a 21-30% reduction in blood glucose, and C represents a greather than 30% reduction in blood glucose levels.

[4] = molecular target: T1, SERCA (Homo sapiens, UniProt P16615); assay: Ca-ATPase assay (NADH-linked, enzyme-coupled ATPase assay); format: biochemical; conditions: microsomal preparations from HEK 293 cells; Vmax from fit of ATPase calcium-dependence to the Hill function, relative to controls
T1 construct: microsomal preparations from HEK 293 cells; endogenous in cells; host or cells: HEK 293 cells (microsomal preparation)
T1 sequence (P16615 whole entry): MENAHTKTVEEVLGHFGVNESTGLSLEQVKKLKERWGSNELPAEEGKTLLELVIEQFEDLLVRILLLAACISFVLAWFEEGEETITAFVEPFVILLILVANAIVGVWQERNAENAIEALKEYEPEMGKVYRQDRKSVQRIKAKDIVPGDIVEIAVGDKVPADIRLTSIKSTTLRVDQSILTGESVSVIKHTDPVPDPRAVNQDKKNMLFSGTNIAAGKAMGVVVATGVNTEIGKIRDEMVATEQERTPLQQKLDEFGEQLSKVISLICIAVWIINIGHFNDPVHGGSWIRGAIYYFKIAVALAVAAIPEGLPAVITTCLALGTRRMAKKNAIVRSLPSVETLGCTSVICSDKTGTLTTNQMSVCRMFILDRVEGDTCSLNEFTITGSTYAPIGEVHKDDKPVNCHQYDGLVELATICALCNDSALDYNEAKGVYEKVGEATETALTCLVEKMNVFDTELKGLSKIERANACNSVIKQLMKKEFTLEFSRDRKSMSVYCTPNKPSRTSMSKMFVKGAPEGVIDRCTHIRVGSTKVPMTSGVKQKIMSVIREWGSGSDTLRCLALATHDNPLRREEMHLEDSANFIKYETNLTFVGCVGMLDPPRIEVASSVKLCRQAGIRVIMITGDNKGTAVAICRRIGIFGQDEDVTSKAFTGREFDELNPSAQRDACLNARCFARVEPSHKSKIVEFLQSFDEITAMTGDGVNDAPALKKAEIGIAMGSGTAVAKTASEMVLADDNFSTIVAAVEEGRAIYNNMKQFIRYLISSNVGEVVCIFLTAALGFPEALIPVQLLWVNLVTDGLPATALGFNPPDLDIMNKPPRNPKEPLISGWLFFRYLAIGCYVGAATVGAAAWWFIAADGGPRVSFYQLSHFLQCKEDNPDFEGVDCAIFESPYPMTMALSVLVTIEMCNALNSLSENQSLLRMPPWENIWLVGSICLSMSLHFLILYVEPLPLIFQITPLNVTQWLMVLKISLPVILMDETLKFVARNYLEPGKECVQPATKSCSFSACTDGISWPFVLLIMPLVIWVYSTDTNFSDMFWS
Protocol: A Ca-ATPase assay was performed using microsomal preparations from HEK 293 cells at a series of calcium concentrations corresponding to the physiological range, relative to controls. The ATP hydrolysis rate was measured over a range of calcium concentrations in the presence of test compounds using an NADH-linked, enzyme-coupled ATPase assay adapted for 96-well microplates, with Vmax determined by fitting the ATPase calcium-dependence to the Hill function. Each well contained 2 μg or 7 μg of SR vesicles (optimized for skeletal or cardiac SR, respectively), 50 mM MOPS (pH 7.0), 100 mM KCl, 5 mM MgCl2, 1 mM EGTA, 0.2 mM NADH, 1 mM phosphoenol pyruvate, 5 IU pyruvate kinase, 5 IU lactate dehydrogenase, and 3.5 μg/mL A23187 (a calcium ionophore). CaCl2 was added to set free [Ca^2+] to the specific values. The assay was started upon addition of ATP at a final concentration of 5 mM, and read in a SpectraMax Plus microplate spectrophotometer. The results are summarized in Table 4, where A represents an increase in SERCA Vmax greater than or equal to 50% and B represents a value greater than 10% and less than 50%.

[5] = tested on: CSM14.1 neuronal cells; assay: Cell survival assay (thapsigargin-induced cell death, CELLTITER-GLO); format: cell-based; conditions: compound 2 hrs before about 15 μM thapsigargin, overnight (about 16 to 24 hrs), luminescence
Protocol: CSM14.1 neuronal cells were maintained in Complete Medium at 32° C.; wherein the Complete Medium contained Dulbecco's modified eagle medium (DMEM) with 10% fetal bovine serum (FSB), 1% L-glutamine, 100 IU/mL penicillin, and 100 μg/mL streptomycin. The cells were recovered from cultures by trypsinization and then seeded in 384 well plates (Greiner #781098) at a concentration of 1,000 cells/well in 20 μL of DMEM Assay Medium, wherein the DMEM Assay Medium contained 2% FBS, 100 IU/mL penicillin, and 100 μg/mL streptomycin. Seeding was performed using a MultiDrop Combi reagent broadcaster. The plates were incubated overnight at 32° C. A test compound was prepared by 2-fold serial dilution in 100% DMSO using a BIOMEK® 2000 liquid handler (Beckman Coulter). A dose-response curve containing 10 concentrations of the test compound was obtained. Using a BIOMEK® FX liquid handler (Beckman Coulter), 2.5 μL of the test compound was transferred from the 100% DMSO serial dilution plate to an intermediate plate containing 47.5 μL of DMEM Assay Medium containing 2% FBS, 100 IU/mL penicillin, and 100 μg/mL streptomycin and mixed. To reduce or eliminate the interference from the compound's precipitation, 6 μL of the diluted compound was immediately transferred to the assay plate to achieve a high compound concentration of 100 μM in 99% DMEM Assay Medium and 1% DMSO. After the assay plates were incubated for 2 hrs, 4 μL of 112.5 μM thapsigargin (TG) (DMSO stock diluted into Assay TC Medium) was dispensed into each testing well with a MultiDrop Combi reagent broadcaster for a final concentration of about 15 μM TG. The tissue culture media (4 μL) containing vehicle only was transferred manually to each control cell using a 16 channel electronic pipette. After the plates were incubated overnight (about 16 to 24 hrs), CELLTITER-GLO® (Promega) (16 μL) was added to all wells and luminescence was measured. High luminescence indicates cell survival. The biological results are summarized in Table 1 where A represents a cell viability EC50 less than or equal to 1 μM, B represents a value greater than 1 μM and less than 10 μM, and C represents a value equal to or greather than 10 μM and less than 20 μM.

| Structure (SMILES) | viability at 20 µM [1] [%] | viability at 7.5 µM [2] [%] | inhibition in vivo at 50 mg/kg [3] [%] | SERCA Vmax Increase [4] | pEC50 [5] |
| --- | --- | --- | --- | --- | --- |
| Cc1ccc(C(=O)Nc2cccc3nccnc23)s1 [A4, 5-Methyl-N-(quinoxalin-5-yl)thiophene-2-carboxamide] | ≥ 50 | ≥ 50 | 10 to 20 | A (A represents an increase in SERCA Vmax greater than or equal to 50%) | 5.00 to 6.00 |
| O=C(Nc1cccc2nccnc12)c1ccc(C(F)(F)F)cc1 [A9, N-(quinoxalin-5-yl)-4-(trifluoromethyl)benzamide] | 20 to 50 | 10 to 20 | 21 to 30 | A (A represents an increase in SERCA Vmax greater than or equal to 50%) | ≥ 6.00 |
| O=C(Nc1cccc2nccnc12)c1cccs1 [A5, N-(Quinoxalin-5-yl)thiophene-2-carboxamide] | 10 to 20 | 20 to 50 | > 30 | A (A represents an increase in SERCA Vmax greater than or equal to 50%) | 4.70 to 5.00 |
| O=C(Nc1cccc2nccnc12)c1cccc(F)c1 [A10, 3-fluoro-N-(quinoxalin-5-yl)benzamide] | 10 to 20 | 20 to 50 | > 30 | A (A represents an increase in SERCA Vmax greater than or equal to 50%) | 5.00 to 6.00 |
| O=C(Nc1cccc2nccnc12)c1ccc(Cl)cc1 [A7, 4-Chloro-N-(quinoxalin-5-yl)benzamide] | ≥ 50 | 20 to 50 | 10 to 20 | B (B represents a value greater than 10% and less than 50%) | ≥ 6.00 |
| O=C(Nc1cccc2nccnc12)c1ccc(Br)s1 [A3, 5-Bromo-N-(quinoxalin-5-yl)thiophene-2-carboxamide] | 10 to 20 | 20 to 50 | 10 to 20 | A (A represents an increase in SERCA Vmax greater than or equal to 50%) | 4.70 to 5.00 |
| O=C(Nc1cccc2nccnc12)c1cc(Br)cs1 [A2, 4-Bromo-N-(quinoxalin-5-yl)thiophene-2-carboxamide] | 20 to 50 | 10 to 20 | 21 to 30 | B (B represents a value greater than 10% and less than 50%) | 5.00 to 6.00 |
| O=C(Nc1cccc2nccnc12)c1cc2ccccc2s1 [A6, N-(Quinoxalin-5-yl)benzo[b]thiophene-2-carboxamide] | 10 to 20 | 20 to 50 | 10 to 20 | B (B represents a value greater than 10% and less than 50%) | 5.00 to 6.00 |
| CC(C)Oc1cccc(C(=O)Nc2cccc3nccnc23)c1 [A8, 3-Isopropoxy-N-(quinoxalin-5-yl)benzamide] | 20 to 50 | 20 to 50 | 21 to 30 | B (B represents a value greater than 10% and less than 50%) | 4.70 to 5.00 |
| CC(C)Oc1ccc(C(=O)Nc2cccc3nccnc23)cc1 [A1, 4-Isopropoxy-N-(quinoxalin-5-yl)benzamide] | 20 to 50 | ≥ 50 | 21 to 30 | A (A represents an increase in SERCA Vmax greater than or equal to 50%) | 5.00 to 6.00 |
